Data set [1] is described as follows: Absorbance properties of halogenated xanthenes (λmax, α). The format is physicochemical. The text has this:
Certain general properties of this class of agents are discussed in further detail in U.S. Ser. No. 09/130,041, filed on Aug. 6, 1998, U.S. Ser. No. 09/184,388, filed on Nov. 2, 1998, and U.S. Ser. No. 09/216,787, filed on Dec. 21, 1998, which are herein incorporated by reference in their entirety.

Data set [2] in a line: Photochemical quantum yields (triplet, singlet oxygen). Type of data set: physicochemical.
The nature of data set [3]: Partition coefficient Kp, n-octanol / phosphate buffered saline. Conditions: ratio of equilibrium concentrations, n-octanol vs PBS pH=7.4. The format is physicochemical.
Procedure: Kp is determined by measuring the ratio of equilibrium concentrations of an agent in a lipophilic phase (n-octanol) contacted with an aqueous phase (phosphate buffered saline, PBS, pH=7.4).
Data set [4] can be described thus: Retention of agent after intratumoral or peritumoral injection. Conditions: intratumoral injection (ICG: within 24 hours). As to the method: Initially, tumor cell suspensions (e.g. melanoma, breast tumor, liver tumor, renal carcinoma, gall bladder tumor or prostate tumor) were injected subcutaneously into the flanks of nude mice resulting in formation of primary tumors, within a few weeks, at the injection site having a volume of approximately 0.1 cm^3 to 0.5 cm^3.

The next data set deals with Renal Adenocarcinoma. Description: Intratumoral injection plus light, murine tumor model. The format is in vivo. The conditions noted are these: i.t. ICG medicament, tumor 3 × 4 × 5 mm; for No. Tumors Cured: 4 treated.

As to `O=C1OC2(c3ccccc31)c1cc(Cl)c(O)c(Cl)c1Oc1c2cc(Cl)c(O)c1Cl` [2′,4′,5′,7′-Tetrachlorofluorescein], in data set [1], the “λmax (nm) EtOH” value was found to be 520 nm and the “λmax (nm) H2O” value is 510 nm. Besides, in data set [2], the “φ (singlet oxygen) EtOH” value is reported as 0.05 and the “φ (singlet oxygen) H2O” value is recorded as 0.05.

On to `O=C1OC2(c3cc(Cl)c(O)cc3Oc3cc(O)c(Cl)cc32)c2ccccc21` [2′,7′-Dichlorofluorescein], for which, in data set [1], the “λmax (nm) EtOH” value came out at 511 nm and the “λmax (nm) H2O” value is 502 nm. In data set [2], the “φ (singlet oxygen) EtOH” value amounted to 0.07 and the “φ (singlet oxygen) H2O” value is 0.04.

On to `O=C1OC2(c3ccc(O)cc3Oc3cc(O)ccc32)c2c(Cl)c(Cl)c(Cl)c(Cl)c21` [4,5,6,7-Tetrachlorofluorescein], for which, in data set [1], the α was found to be 29000 L/cm/mol and the “λmax (nm) H2O” value amounted to 515 nm.

For the compound `O=C1OC2(c3ccccc31)c1ccc(O)c(Cl)c1Oc1c2ccc(O)c1Cl` [4′,5′-Dichlorofluorescein], in data set [1], the “λmax (nm) EtOH” value turned out to be 511 nm and the “λmax (nm) H2O” value came to 502 nm. In data set [2], the “φ (singlet oxygen) EtOH” value came to 0.07 and the “φ (singlet oxygen) H2O” value was 0.04.

For `O=C(O)c1ccccc1-c1c2cc([N+](=O)[O-])c(=O)c(Br)c-2oc2c(Br)c(O)c([N+](=O)[O-])cc12` [Eosin B], in data set [1], the α came out at 39000 L/cm/mol and the “λmax (nm) H2O” value is recorded as 522 nm.

As for `O=C([O-])c1ccccc1-c1c2cc(Br)c(=O)c(Br)c-2oc2c(Br)c([O-])c(Br)cc12.[Na+].[Na+]` [Eosin Y], in data set [1], the α was 91000 L/cm/mol, the “λmax (nm) EtOH” value is 523 nm, the “λmax (nm) H2O” value is reported as 517 nm and the “λmax (nm) MeOH” value amounted to 527 nm. In data set [2], the “φ (singlet oxygen) EtOH” value is 0.57, the “φ (singlet oxygen) H2O” value stood at 0.32, the “φ (singlet oxygen) MeOH” value amounted to 0.39 and the “φ (triplet) MeOH” value was found to be 0.28.

`O.O=C([O-])c1ccccc1-c1c2cc(I)c(=O)c(I)c-2oc2c(I)c([O-])c(I)cc12.[Na+].[Na+]` [Erythrosin B]: in data set [3], the “Kp (partition coefficient)” value is reported as 1.9. Also, in data set [1], the α was found to be 91000 L/cm/mol, the “λmax (nm) EtOH” value is reported as 532 nm, the “λmax (nm) H2O” value came out at 528 nm and the “λmax (nm) MeOH” value amounted to 529 nm. For the same compound, in data set [2], the “φ (singlet oxygen) EtOH” value turned out to be 0.63, the “φ (singlet oxygen) H2O” value is 0.69, the “φ (singlet oxygen) MeOH” value amounted to 0.62 and the “φ (triplet) MeOH” value is reported as 0.62.

As to `CCOC(=O)c1ccccc1-c1c2cc(Br)c(=O)c(Br)c-2oc2c(Br)c([O-])c(Br)cc12.[K+]` [Ethyl Eosin], in data set [1], the α was 11000 L/cm/mol and the “λmax (nm) EtOH” value came to 532 nm.

With `O=C1OC2(c3ccc(O)cc3Oc3cc(O)ccc32)c2ccccc21` [Fluorescein], in data set [1], the α stood at 64000 L/cm/mol, the “λmax (nm) EtOH” value is on record as 499 nm, the “λmax (nm) H2O” value amounted to 490 nm and the “λmax (nm) MeOH” value came out at 492 nm. Also, in data set [2], the “φ (singlet oxygen) EtOH” value is 0.03, the “φ (singlet oxygen) H2O” value turned out to be 0.03, the “φ (singlet oxygen) MeOH” value was 0.09 and the “φ (triplet) MeOH” value was found to be 0.03.

With `CC1(C)C(/C=C/C=C/C=C/C=C2\N(CCCCS(=O)(=O)O)c3ccc4ccccc4c3C2(C)C)=[N+](CCCCS(=O)(=O)[O-])c2ccc3ccccc3c21` [Indocyanine Green, reference compound], the “Tissue localization after i.t. administration” value in data set [4] is recorded as “substantively migrated out of the tumor”. Also, in the data set with Renal Adenocarcinoma (No Light control, 0 J/cm^2), the “Cure Rate” value was 0% and the “No. Tumors Cured” value came out at 0. In the data set with Renal Adenocarcinoma (50 J/cm^2 805 nm), the “Cure Rate” value was 0% and the “No. Tumors Cured” value is 0.

Regarding `O=C([O-])c1c(Cl)c(Cl)c(Cl)c(Cl)c1-c1c2cc(Br)c(=O)c(Br)c-2oc2c(Br)c([O-])c(Br)cc12.[Na+].[Na+]` [Phloxine B], in data set [3], the “Kp (partition coefficient)” value came out at 1.1. In data set [1], the α amounted to 100000 L/cm/mol, the “λmax (nm) EtOH” value was found to be 548 nm, the “λmax (nm) H2O” value was 541 nm and the “λmax (nm) MeOH” value worked out at 547 nm. In data set [2], the “φ (singlet oxygen) EtOH” value turned out to be 0.63 and the “φ (singlet oxygen) H2O” value was 0.40.

In the case of `CCN(CC)CC.CCN(CC)CC.O=C(O)c1c(Cl)c(Cl)c(Cl)c(Cl)c1-c1c2cc(I)c(=O)c(I)c-2oc2c(I)c(O)c(I)cc12` [Rose Bengal Derivative II], in data set [2], the “φ (singlet oxygen) MeOH” value worked out at 0.72.

As to `CCN(CC)CC.CCOC(=O)c1c(Cl)c(Cl)c(Cl)c(Cl)c1-c1c2cc(I)c(=O)c(I)c-2oc2c(I)c(O)c(I)cc12` [Rose Bengal Derivative I], in data set [1], the “λmax (nm) EtOH” value turned out to be 563 nm. Further, the “φ (singlet oxygen) MeOH” value in data set [2] was 0.74.

Regarding `O=C1OC2(c3ccccc31)c1ccc(O)c(Br)c1Oc1c2ccc(O)c1Br` [Solvent Red 72], in data set [1], the α is 14000 L/cm/mol and the “λmax (nm) MeOH” value is listed as 450 nm.

Dibromofluorescein: in data set [1], the α was 14000 L/cm/mol, the “λmax (nm) EtOH” value turned out to be 510 nm and the “λmax (nm) H2O” value is on record as 504 nm. Moreover, in data set [2], the “φ (singlet oxygen) EtOH” value is given as 0.42 and the “φ (singlet oxygen) H2O” value is given as 0.32.

In the case of Diiodofluorescein, in data set [1], the α was 58000 L/cm/mol, the “λmax (nm) EtOH” value is reported as 513 nm and the “λmax (nm) H2O” value is 506 nm. In addition, in data set [2], the “φ (singlet oxygen) EtOH” value was 0.48 and the “φ (singlet oxygen) H2O” value amounted to 0.33.

The values are drawn from patent publication US20050282889A1, “Intracorporeal medicaments for photodynamic treatment of disease” (priority 1996, published 2005).
